Reference: PubChem BioAssay (NCI)
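Five concentrations, 48 hours, 96-well plates. At the TGI there is no net growth.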

Tests used:
Assay in all cases: NCI tumour cell line growth inhibition, 48 h
[1] = test system: LOX IMVI melanoma
[2] = test system: UACC-62 melanoma
[3] = test system: COLO 205 colon
[4] = test system: CAKI-1 renal
[5] = test system: RXF 393 renal
[6] = test system: UO-31 renal
[7] = test system: SF-539 CNS
[8] = test system: HOP-92 NSCLC
[9] = test system: MOLT-4 leukemia

## CC(C)[Si](Oc1ccc(CC2N(C(=O)c3ccc([N+](=O)[O-])cc3)C(CCc3ccccc3)CC2(C)C=O)cc1)(C(C)C)C(C)C (stereo unspecified)
[1]
  TGI: > 100 µM
[2]
  TGI: > 100 µM
[3]
  TGI: > 100 µM
[4]
  TGI: > 100 µM
[5]
  TGI: 28.2 µM
[6]
  TGI: > 100 µM
[7]
  TGI: 23.2 µM
[8]
  TGI: 82.8 µM

## S=C1NNC2(C(=S)N1)c1ccccc1-c1ccccc12
[1]
  TGI: > 10 µM
[2]
  TGI: > 10 µM
[3]
  TGI: > 10 µM
[4]
  TGI: > 10 µM
[9]
  TGI: > 10 µM
[6]
  TGI: > 10 µM
[7]
  TGI: > 10 µM
[8]
  TGI: > 10 µM

## CCOc1cc2c(cc1O)C(=O)C[C@@H]1[C@@H]2CC[C@]2(C)[C@@H](O)CC[C@@H]12
[1]
  TGI: > 100 µM
[2]
  TGI: > 100 µM
[3]
  TGI: 47.4 µM
[4]
  TGI: > 100 µM
[9]
  TGI: > 31.7 µM
[5]
  TGI: > 100 µM
[6]
  TGI: > 100 µM
[7]
  TGI: 0.487 µM
[8]
  TGI: > 100 µM

## COC(=O)C1Cc2cc3c(cc2C1)CCC3
[1]
  TGI: > 100 µM
[2]
  TGI: > 100 µM
[3]
  TGI: > 100 µM
[4]
  TGI: > 100 µM
[9]
  TGI: > 100 µM
[5]
  TGI: > 100 µM
[6]
  TGI: > 100 µM
[7]
  TGI: > 100 µM
[8]
  TGI: > 100 µM

## O=C1N[C@H](C(=O)O)[C@@H](c2ccc(OCc3ccccc3)cc2)O1
[2]
  TGI: > 100 µM
[3]
  TGI: > 100 µM
[4]
  TGI: > 100 µM
[9]
  TGI: > 100 µM
[5]
  TGI: 32.1 µM
[6]
  TGI: > 100 µM

## CC(C)C(=O)/C=C/c1c(Cl)cccc1Cl
[1]
  TGI: 7.32 µM
[2]
  TGI: 19.1 µM
[3]
  TGI: 22.4 µM
[4]
  TGI: 13.8 µM
[9]
  TGI: > 100 µM
[5]
  TGI: 19 µM
[6]
  TGI: 16 µM
[7]
  TGI: 7.44 µM
[8]
  TGI: 26.6 µM

## C=CCOCn1cnc2c(=O)[nH]c(N)nc21
[1]
  TGI: > 100 µM
[2]
  TGI: > 100 µM
[3]
  TGI: > 100 µM
[4]
  TGI: > 100 µM
[9]
  TGI: > 100 µM
[6]
  TGI: > 100 µM
[7]
  TGI: > 100 µM

## Cc1ccc(-c2cc(=O)c(=O)[nH][nH]2)cc1
[1]
  TGI: > 100 µM
[2]
  TGI: > 100 µM
[3]
  TGI: > 100 µM
[4]
  TGI: > 100 µM
[9]
  TGI: > 100 µM
[5]
  TGI: > 100 µM
[6]
  TGI: > 100 µM
[7]
  TGI: > 100 µM
[8]
  TGI: > 100 µM

## O=C(CCCn1ccnc1[N+](=O)[O-])NCCn1cnc([N+](=O)[O-])n1
[1]
  TGI: > 100 µM
[2]
  TGI: > 100 µM
[3]
  TGI: > 100 µM
[4]
  TGI: > 100 µM
[9]
  TGI: > 100 µM
[5]
  TGI: > 100 µM
[6]
  TGI: > 100 µM
[7]
  TGI: > 100 µM
[8]
  TGI: > 100 µM

## CN(C)NC1=NS(=O)(=O)c2cc3c(=O)n(C)[nH]c3cc2S1
[1]
  TGI: > 10 µM
[3]
  TGI: > 10 µM
[4]
  TGI: > 10 µM
[9]
  TGI: > 10 µM
[5]
  TGI: > 10 µM
[6]
  TGI: > 10 µM
[7]
  TGI: > 10 µM
[8]
  TGI: > 10 µM

## OCC1OC(n2cnc3c(Cl)nc(Nc4ccc(Cl)c(Cl)c4)nc32)CC1O (stereo unspecified)
[1]
  TGI: 16 µM
[2]
  TGI: 17.2 µM
[3]
  TGI: 20.5 µM
[4]
  TGI: 33.7 µM
[9]
  TGI: 12.5 µM
[5]
  TGI: 19.5 µM
[6]
  TGI: 31.4 µM
[8]
  TGI: 16.3 µM

## Cn1c(=S)[nH]c(N)c(Cc2ccccc2)c1=O
[1]
  TGI: > 100 µM
[2]
  TGI: > 100 µM
[3]
  TGI: > 100 µM
[4]
  TGI: > 100 µM
[9]
  TGI: > 100 µM
[5]
  TGI: > 100 µM
[7]
  TGI: > 100 µM
[8]
  TGI: 97.1 µM

## CN(Cc1cnc2nc(N)nc(N)c2n1)c1ccc(C(=O)NCCCC(=O)O)cc1
[1]
  TGI: > 100 µM
[2]
  TGI: > 100 µM
[3]
  TGI: > 100 µM
[4]
  TGI: > 100 µM
[9]
  TGI: > 100 µM
[5]
  TGI: > 100 µM
[6]
  TGI: > 100 µM
[7]
  TGI: > 100 µM
[8]
  TGI: > 100 µM

## CC1CC(=O)Nc2ccccc2N1C(=O)C1CC1 (stereo unspecified)
[1]
  TGI: > 100 µM
[3]
  TGI: > 100 µM
[4]
  TGI: > 100 µM
[9]
  TGI: > 100 µM
[5]
  TGI: > 100 µM
[6]
  TGI: > 100 µM
[7]
  TGI: > 100 µM
[8]
  TGI: > 100 µM

## Nc1ccc(C2SCC(=O)N2NS(=O)(=O)c2cccc(C(=O)O)c2)cc1 (stereo unspecified)
[1]
  TGI: > 100 µM
[2]
  TGI: > 100 µM
[3]
  TGI: > 100 µM
[4]
  TGI: > 100 µM
[9]
  TGI: > 100 µM
[5]
  TGI: > 100 µM
[6]
  TGI: > 100 µM
[7]
  TGI: > 100 µM
[8]
  TGI: > 100 µM

## CN1CCN(c2n[nH]c(=O)c3c2nnn3C2CCCCC2)CC1
[1]
  TGI: > 100 µM
[2]
  TGI: > 100 µM
[3]
  TGI: > 100 µM
[4]
  TGI: > 100 µM
[9]
  TGI: > 100 µM
[5]
  TGI: > 100 µM
[6]
  TGI: > 100 µM
[7]
  TGI: > 100 µM
[8]
  TGI: > 100 µM

## CCOC(=O)CC1Nc2ccccc2C12CCc1c([nH]c3ccccc13)C2C(=O)OCC (stereo unspecified)
[1]
  TGI: > 100 µM
[2]
  TGI: > 100 µM
[3]
  TGI: 22.4 µM
[4]
  TGI: > 100 µM
[9]
  TGI: > 100 µM
[5]
  TGI: > 100 µM
[6]
  TGI: > 100 µM
[7]
  TGI: > 100 µM

## COc1ccc(/C=C/C(=O)CCN2CCN(CCC(=O)/C=C/c3ccc(OC)cc3)CC2)cc1
[1]
  TGI: 11.1 µM
[2]
  TGI: 27.2 µM
[3]
  TGI: 13.4 µM
[4]
  TGI: 26.3 µM
[9]
  TGI: > 100 µM
[5]
  TGI: 17.2 µM
[6]
  TGI: 27.7 µM
[7]
  TGI: 19.1 µM
[8]
  TGI: 34.5 µM

## COc1ccc(CNc2nc3cc(C(F)(F)F)ccc3nc2C(=O)O)cc1
[1]
  TGI: 44.3 µM
[2]
  TGI: 49.8 µM
[3]
  TGI: 39.7 µM
[4]
  TGI: > 100 µM
[9]
  TGI: 52.6 µM
[6]
  TGI: 42.5 µM
[7]
  TGI: 49.2 µM
[8]
  TGI: 62.9 µM

## Cc1cc(N=Cc2c(CO)cnc(C)c2O)c(N=Cc2c(CO)cnc(C)c2O)cc1C
[1]
  TGI: > 100 µM
[2]
  TGI: > 100 µM
[3]
  TGI: > 100 µM
[4]
  TGI: > 100 µM
[5]
  TGI: > 100 µM
[7]
  TGI: > 100 µM

## O=C(CC(=O)N1N=C(N(c2ccccc2)c2ccccc2)CC1c1ccccc1)Nc1cccc(Cl)c1 (stereo unspecified)
[2]
  TGI: > 100 µM
[3]
  TGI: > 100 µM
[4]
  TGI: > 100 µM
[9]
  TGI: > 100 µM
[5]
  TGI: > 100 µM
[6]
  TGI: > 100 µM
[7]
  TGI: > 100 µM
[8]
  TGI: > 100 µM

## C[C@@H]1CC[C@@]2(C)[C@H](C)/C(=C\COC(=O)/C=C/c3ccc(O)c(O)c3)CC[C@@]12C
[1]
  TGI: 21.5 µM
[2]
  TGI: 22.1 µM
[3]
  TGI: 13.4 µM
[4]
  TGI: 15 µM
[9]
  TGI: 8.9 µM
[5]
  TGI: 39.1 µM
[6]
  TGI: 28 µM
[7]
  TGI: 16.2 µM
[8]
  TGI: 29.7 µM

## CC(=O)OCC1OC(O[C@H]2C=C[C@@H](C(=O)OCc3ccccc3)n3c(=O)n(-c4ccccc4)c(=O)n32)C(OC(C)=O)C(OC(C)=O)C1OC(C)=O (stereo partly specified)
[2]
  TGI: 3.18 µM
[3]
  TGI: 8.75 µM
[4]
  TGI: 2.98 µM
[9]
  TGI: 5.72 µM
[5]
  TGI: 4.07 µM
[6]
  TGI: 2.93 µM
[7]
  TGI: 3.21 µM
[8]
  TGI: 3.9 µM

## CN1CCc2c(sc3ncn(Nc4ccc(F)cc4)c(=N)c23)C1
[1]
  TGI: > 100 µM
[2]
  TGI: > 100 µM
[4]
  TGI: > 100 µM
[9]
  TGI: > 100 µM
[5]
  TGI: > 100 µM
[7]
  TGI: > 100 µM
[8]
  TGI: > 100 µM
